In paper PMC9007462 (Journal of Medicinal Chemistry, 2022):

Experiments:
[1] = molecular target: T1, Human ALDH1A1 (Homo sapiens, UniProt P00352); test: DEAB analogues as substrates of ALDH1A1; format: biochemical; conditions: 10 μM compound as substrate, relative to activity with 10 μM hexanal (Figure S2)
T1 construct: made in house
T1 sequence (P00352 1-501): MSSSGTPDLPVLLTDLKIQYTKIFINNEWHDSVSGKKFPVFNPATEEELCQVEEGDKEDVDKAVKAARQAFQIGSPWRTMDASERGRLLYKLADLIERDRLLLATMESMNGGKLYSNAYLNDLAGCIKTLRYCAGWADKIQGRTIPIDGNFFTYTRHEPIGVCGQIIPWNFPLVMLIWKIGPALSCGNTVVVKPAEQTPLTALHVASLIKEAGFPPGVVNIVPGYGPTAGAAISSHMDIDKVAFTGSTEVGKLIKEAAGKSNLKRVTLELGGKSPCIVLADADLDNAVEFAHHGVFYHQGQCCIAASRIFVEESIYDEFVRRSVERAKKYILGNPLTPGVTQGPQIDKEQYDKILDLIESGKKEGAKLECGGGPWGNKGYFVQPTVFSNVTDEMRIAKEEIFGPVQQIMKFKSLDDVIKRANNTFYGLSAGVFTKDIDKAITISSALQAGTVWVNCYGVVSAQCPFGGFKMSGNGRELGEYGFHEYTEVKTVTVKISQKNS
Description: (§1) Human ALDH1A1, ALDH1A3, and ALDH3A1 were cloned and recombinantly expressed from the pET-30 Xa/LIC vector. Protein purification was achieved by affinity chromatography on a nickel-charged chelating Sepharose Fast Flow 5-mL column (His Trap column, Cytiva), which specifically binds the protein due to its N-terminal (His)6 tag, using an ÄKTA FPLC system (Cytiva), as previously described.[55] Enzymes including the His tag were stored at −80 °C in 20 mM Tris/HCl and 0.5 M NaCl, pH 8.0, until use. Reaction buffers were as follows: ALDH1A1 was assayed in 50 mM HEPES, 0.5 mM EDTA, and 0.5 mM DTT, pH 8.0; ALDH1A3 was assayed in 50 mM HEPES, 30 mM MgCl2, and 5 mM DTT, pH 8.0; and ALDH3A1 was assayed in 50 mM Tris–HCl and 5 mM DTT, pH 8.0. Activity under standard conditions was measured fluorimetrically at 25 °C using a Cary Eclipse (Varian) fluorimeter to follow the purification procedure and to check the enzyme concentration before each kinetic experiment. The fluorescence of NADH was characterized at 460 nm with excitation at 340 nm, and 5 μM NAD(P)H was added as an internal standard to obtain the absolute reaction rates.[55] Standard activity was measured at saturating concentrations of substrate using 30 μM hexanal (ALDH1A1), 250 μM hexanal (ALDH1A3), or 250 μM 4-NBA (ALDH3A1). NAD^+ was 500 μM for ALDH1A1 and ALDH1A3, and NADP^+ was 1 mM for ALDH3A1.
According to their structure with a carbonyl group, compounds were tested for their substrate properties against ALDH1A1, ALDH1A3, and ALDH3A1. […] Results are expressed as the percentage of activity at 10 μM versus the activity at 10 μM of their standard substrate (hexanal or 4-NBA). Values are expressed as the mean ± SE.

[2] = molecular target: T2, Human ALDH3A1 (Homo sapiens, UniProt P30838); test: ALDH3A1 inhibition, IC50, Ki and type of inhibition; format: biochemical; conditions: measured at a saturating substrate concentration (4-NBA); mean ± SE
T2 construct: made in house
T2 sequence (P30838 1-453): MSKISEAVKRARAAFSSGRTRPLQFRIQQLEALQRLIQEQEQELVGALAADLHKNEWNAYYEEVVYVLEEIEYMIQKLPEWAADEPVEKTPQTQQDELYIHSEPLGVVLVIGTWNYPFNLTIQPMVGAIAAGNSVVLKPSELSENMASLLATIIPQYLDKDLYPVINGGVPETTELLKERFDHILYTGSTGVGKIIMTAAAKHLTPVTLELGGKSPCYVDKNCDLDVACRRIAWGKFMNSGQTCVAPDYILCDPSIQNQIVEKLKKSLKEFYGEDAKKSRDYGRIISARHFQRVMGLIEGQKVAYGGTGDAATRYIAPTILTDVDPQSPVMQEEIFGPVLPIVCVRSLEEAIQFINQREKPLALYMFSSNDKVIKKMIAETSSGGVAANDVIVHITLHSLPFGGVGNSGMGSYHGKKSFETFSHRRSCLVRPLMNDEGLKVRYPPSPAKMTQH

[3] = system: PC3; test: MTT chemosensitivity assay, PC3; format: cell-based, human; conditions: Homo sapiens, PC-3, 96 h exposure, ± SD, at least three independent experiments
Description: (§2) MTT (3-(4, 5-dimethyl-2-thiazolyl)-2, 5-diphenyl-2H-tetrazolium bromide) assay was used to determine cell viability.[64] Immortalized PCa cells (PC-3, Du-145, and LNCaP) were seeded in 96-well plates and allowed to adhere overnight at 37 °C, 5% CO2, and 100% humidity. […] After 96 h of exposure, 200 μL of MTT (Sigma) solution (0.5 mg/mL) was added to each well and incubated at 37 °C for 4 h. The formazan crystals were dissolved in DMSO (Sigma), and the absorbance was read using a microplate reader (Multiskan EX; Thermo Fisher Scientific) at 540 nm. Data analysis was performed using Microsoft Excel 2013 and GraphPad Prism software.

[4] = molecular target: T3, Human ALDH1A3 (Homo sapiens, UniProt P47895); test: ALDH1A3 inhibition, IC50, Ki and type of inhibition; format: biochemical; conditions: 6 μM hexanal as substrate; mean ± SE
T3 construct: made in house
T3 sequence (P47895 1-512): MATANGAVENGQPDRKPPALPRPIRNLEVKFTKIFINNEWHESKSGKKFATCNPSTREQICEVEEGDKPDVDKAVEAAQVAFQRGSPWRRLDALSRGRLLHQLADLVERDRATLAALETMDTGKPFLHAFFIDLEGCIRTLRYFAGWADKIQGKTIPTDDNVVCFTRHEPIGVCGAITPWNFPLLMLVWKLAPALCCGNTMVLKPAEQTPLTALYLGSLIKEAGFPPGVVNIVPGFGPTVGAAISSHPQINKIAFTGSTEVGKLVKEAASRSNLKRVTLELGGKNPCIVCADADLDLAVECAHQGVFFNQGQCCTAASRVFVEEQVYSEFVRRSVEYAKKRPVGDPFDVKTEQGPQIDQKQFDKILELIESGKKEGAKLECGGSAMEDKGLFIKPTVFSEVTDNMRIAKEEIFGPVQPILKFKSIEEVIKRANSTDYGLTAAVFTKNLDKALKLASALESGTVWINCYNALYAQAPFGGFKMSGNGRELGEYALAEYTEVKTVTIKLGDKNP
Description: Human ALDH1A1, ALDH1A3, and ALDH3A1 were cloned and recombinantly expressed from the pET-30 Xa/LIC vector. Protein purification was achieved by affinity chromatography on a nickel-charged chelating Sepharose Fast Flow 5-mL column (His Trap column, Cytiva), which specifically binds the protein due to its N-terminal (His)6 tag, using an ÄKTA FPLC system (Cytiva), as previously described.[55] Enzymes including the His tag were stored at −80 °C in 20 mM Tris/HCl and 0.5 M NaCl, pH 8.0, until use. Reaction buffers were as follows: ALDH1A1 was assayed in 50 mM HEPES, 0.5 mM EDTA, and 0.5 mM DTT, pH 8.0; […] Activity under standard conditions was measured fluorimetrically at 25 °C using a Cary Eclipse (Varian) fluorimeter to follow the purification procedure and to check the enzyme concentration before each kinetic experiment. […] In order to determine the IC50 values, reaction rates were determined at various concentrations of inhibitor at a fixed concentration of substrate. […] Values are expressed as the mean ± SE. […] The data of enzymatic activities at different inhibitor concentrations were fitted to the Michaelis–Menten equation to determine the values of Km and Vmax. Next, results were fitted to the equations for competitive, given by [drawing 3]; noncompetitive, given by [drawing 4]; uncompetitive, given by [drawing 5]; and mixed, given by [drawing 6] .[56] The type of inhibition was selected based on the lowest error value. Parameters were expressed as the mean ± SE.

[5] = system: LNCaP; test: MTT chemosensitivity assay, LNCaP; format: cell-based, human; conditions: Homo sapiens, LNCaP, 96 h exposure, ± SD, at least three independent experiments
Description: as §2

[6] = system: DU145; test: MTT chemosensitivity assay, DU145; format: cell-based, human; conditions: Homo sapiens, DU-145, 96 h exposure, ± SD, at least three independent experiments
Description: as §2

[7] = system: PC3, DU145 and LNCaP prostate cancer cell lines; test: MTT chemosensitivity assay, panel of three prostate cancer cell lines; format: cell-based; conditions: Homo sapiens, 96 h exposure, read-out: IC50 against three prostate cancer cell lines
Description: as §2

[8] = molecular target: T2, Human ALDH3A1; test: ALDH3A1 inhibition, IC50, Ki and type of inhibition; format: biochemical; conditions: 31 μM 4-NBA as substrate; mean ± SE
Description: as §1
In order to determine the IC50 values, reaction rates were determined at various concentrations of inhibitor at a fixed concentration of substrate. As substrates for ALDH1A1, ALDH1A3, and ALDH3A1, 5 μM hexanal, 6 μM hexanal, and 31 μM 4-NBA, respectively, were used. The IC50 values were calculated by nonlinear fitting of the obtained data to a sigmoidal plot using GraFit 5.0 (Erithacus software), with the following 4-parameter equation [drawing 2] , where y is the specific activity, x is the inhibitor concentration, background is the minimum y value, range is the fitted uninhibited value minus the background, and s is the slope factor. Values are expressed as the mean ± SE.
Activity assays to determine the type of inhibition and Ki value were performed using various substrate and inhibitor concentrations maintaining the same conditions as for the IC50 experiments and using GraFit 5.0 for data processing. The data of enzymatic activities at different inhibitor concentrations were fitted to the Michaelis–Menten equation to determine the values of Km and Vmax. Next, results were fitted to the equations for competitive, given by [drawing 3]; noncompetitive, given by [drawing 4]; uncompetitive, given by [drawing 5]; and mixed, given by [drawing 6] .[56] The type of inhibition was selected based on the lowest error value. Parameters were expressed as the mean ± SE.

[9] = system: patient-derived primary prostate tumor epithelial cells; conditions: other primary samples analyzed in the authors' laboratory; cited from earlier work
[10] = molecular target: T3, Human ALDH1A3; test: Inhibition screening, single point at 10 μM, ALDH1A3; format: biochemical; conditions: 10 μM compound; hexanal as substrate (Figure S1)
Description: as §1, with “Reaction buffers were as follows: ALDH1A1 was assayed in 50 mM HEPES, 0.5 mM EDTA, and 0.5 mM DTT, pH 8.0; ALDH1A3 was assayed in 50 mM HEPES, 30 mM MgCl2, and 5 mM DTT, pH 8.0; and ALDH3A1 was assayed in 50 mM Tris–HCl and 5 mM DTT, pH 8.0.” left out, “NAD^+ was 500 μM for ALDH1A1 and ALDH1A3, and NADP^+ was 1 mM for ALDH3A1.” left out
All compounds tested were dissolved in DMSO and assayed at a final concentration of 1% (v/v) DMSO. […] Alternatively, the enzymatic activity was measured in a Varian Cary 400 UV–vis spectrophotometer, by monitoring the increase in the absorbance of NAD(P)H at 340 nm (ε = 6.22 mM^–1·cm^–1) or in a Cary Eclipse Varian fluorimeter, as described above. […]

Structure (SMILES) | ALDH1A1 substrate activity [1] | IC50 [2] | IC50 [3] | IC50 [4] | IC50 [5] | IC50 [6] | IC50 [7] | IC50 [8] | IC50 [9] | remaining ALDH1A3 activity [10]
CCCN(CCC)c1ccc(C=O)cc1Cl [Compound 7, 3-Chloro-4-(dipropylamino)benzaldehyde] | 17.9% | 13.7 ± 0.3 µM | 77 ± 17 µM | 0.55 ± 0.05 µM | 10 ± 3 µM | 90 ± 27 µM |  |  |  | 
CCN(CC)c1ccc(C=O)cc1 [DEAB, 4-(Diethylamino)benzaldehyde, reference compound] |  |  | > 200 µM | 10.4 ± 1 µM | > 200 µM | > 200 µM | > 200 µM | 5.67 ± 0.66 µM |  | 
CC(=O)O[C@@]12CO[C@@H]1C[C@H](O)[C@@]1(C)C(=O)[C@H](O)C3=C(C)[C@@H](OC(=O)[C@H](O)[C@@H](NC(=O)OC(C)(C)C)c4ccccc4)C[C@@](O)([C@@H](OC(=O)c4ccccc4)[C@H]21)C3(C)C [docetaxel] |  |  |  |  |  |  |  |  | 1 nM | 
Cc1cc(C=O)ccc1N1CCN(C)CC1 [Compound 24, 3-Methyl-4-(4-methylpiperazin-1-yl)benzaldehyde] |  |  |  |  |  |  |  |  |  | 45%
